From US9586951B2 (FUJIFILM Corporation, priority 2013, dated 2017) come the findings set out here.

A value given as a limit tells only on which side of the number the result lay.

The experiment deals with T1, ATM (Homo sapiens, UniProt Q13315).
T1 construct: detecting phosphorylation of Chk2 in a human non-small cell lung cancer cell line NCI-H460 (ATCC company); host or cells: NCI-H460 human non-small cell lung cancer cells
T1 sequence (Q13315 whole entry): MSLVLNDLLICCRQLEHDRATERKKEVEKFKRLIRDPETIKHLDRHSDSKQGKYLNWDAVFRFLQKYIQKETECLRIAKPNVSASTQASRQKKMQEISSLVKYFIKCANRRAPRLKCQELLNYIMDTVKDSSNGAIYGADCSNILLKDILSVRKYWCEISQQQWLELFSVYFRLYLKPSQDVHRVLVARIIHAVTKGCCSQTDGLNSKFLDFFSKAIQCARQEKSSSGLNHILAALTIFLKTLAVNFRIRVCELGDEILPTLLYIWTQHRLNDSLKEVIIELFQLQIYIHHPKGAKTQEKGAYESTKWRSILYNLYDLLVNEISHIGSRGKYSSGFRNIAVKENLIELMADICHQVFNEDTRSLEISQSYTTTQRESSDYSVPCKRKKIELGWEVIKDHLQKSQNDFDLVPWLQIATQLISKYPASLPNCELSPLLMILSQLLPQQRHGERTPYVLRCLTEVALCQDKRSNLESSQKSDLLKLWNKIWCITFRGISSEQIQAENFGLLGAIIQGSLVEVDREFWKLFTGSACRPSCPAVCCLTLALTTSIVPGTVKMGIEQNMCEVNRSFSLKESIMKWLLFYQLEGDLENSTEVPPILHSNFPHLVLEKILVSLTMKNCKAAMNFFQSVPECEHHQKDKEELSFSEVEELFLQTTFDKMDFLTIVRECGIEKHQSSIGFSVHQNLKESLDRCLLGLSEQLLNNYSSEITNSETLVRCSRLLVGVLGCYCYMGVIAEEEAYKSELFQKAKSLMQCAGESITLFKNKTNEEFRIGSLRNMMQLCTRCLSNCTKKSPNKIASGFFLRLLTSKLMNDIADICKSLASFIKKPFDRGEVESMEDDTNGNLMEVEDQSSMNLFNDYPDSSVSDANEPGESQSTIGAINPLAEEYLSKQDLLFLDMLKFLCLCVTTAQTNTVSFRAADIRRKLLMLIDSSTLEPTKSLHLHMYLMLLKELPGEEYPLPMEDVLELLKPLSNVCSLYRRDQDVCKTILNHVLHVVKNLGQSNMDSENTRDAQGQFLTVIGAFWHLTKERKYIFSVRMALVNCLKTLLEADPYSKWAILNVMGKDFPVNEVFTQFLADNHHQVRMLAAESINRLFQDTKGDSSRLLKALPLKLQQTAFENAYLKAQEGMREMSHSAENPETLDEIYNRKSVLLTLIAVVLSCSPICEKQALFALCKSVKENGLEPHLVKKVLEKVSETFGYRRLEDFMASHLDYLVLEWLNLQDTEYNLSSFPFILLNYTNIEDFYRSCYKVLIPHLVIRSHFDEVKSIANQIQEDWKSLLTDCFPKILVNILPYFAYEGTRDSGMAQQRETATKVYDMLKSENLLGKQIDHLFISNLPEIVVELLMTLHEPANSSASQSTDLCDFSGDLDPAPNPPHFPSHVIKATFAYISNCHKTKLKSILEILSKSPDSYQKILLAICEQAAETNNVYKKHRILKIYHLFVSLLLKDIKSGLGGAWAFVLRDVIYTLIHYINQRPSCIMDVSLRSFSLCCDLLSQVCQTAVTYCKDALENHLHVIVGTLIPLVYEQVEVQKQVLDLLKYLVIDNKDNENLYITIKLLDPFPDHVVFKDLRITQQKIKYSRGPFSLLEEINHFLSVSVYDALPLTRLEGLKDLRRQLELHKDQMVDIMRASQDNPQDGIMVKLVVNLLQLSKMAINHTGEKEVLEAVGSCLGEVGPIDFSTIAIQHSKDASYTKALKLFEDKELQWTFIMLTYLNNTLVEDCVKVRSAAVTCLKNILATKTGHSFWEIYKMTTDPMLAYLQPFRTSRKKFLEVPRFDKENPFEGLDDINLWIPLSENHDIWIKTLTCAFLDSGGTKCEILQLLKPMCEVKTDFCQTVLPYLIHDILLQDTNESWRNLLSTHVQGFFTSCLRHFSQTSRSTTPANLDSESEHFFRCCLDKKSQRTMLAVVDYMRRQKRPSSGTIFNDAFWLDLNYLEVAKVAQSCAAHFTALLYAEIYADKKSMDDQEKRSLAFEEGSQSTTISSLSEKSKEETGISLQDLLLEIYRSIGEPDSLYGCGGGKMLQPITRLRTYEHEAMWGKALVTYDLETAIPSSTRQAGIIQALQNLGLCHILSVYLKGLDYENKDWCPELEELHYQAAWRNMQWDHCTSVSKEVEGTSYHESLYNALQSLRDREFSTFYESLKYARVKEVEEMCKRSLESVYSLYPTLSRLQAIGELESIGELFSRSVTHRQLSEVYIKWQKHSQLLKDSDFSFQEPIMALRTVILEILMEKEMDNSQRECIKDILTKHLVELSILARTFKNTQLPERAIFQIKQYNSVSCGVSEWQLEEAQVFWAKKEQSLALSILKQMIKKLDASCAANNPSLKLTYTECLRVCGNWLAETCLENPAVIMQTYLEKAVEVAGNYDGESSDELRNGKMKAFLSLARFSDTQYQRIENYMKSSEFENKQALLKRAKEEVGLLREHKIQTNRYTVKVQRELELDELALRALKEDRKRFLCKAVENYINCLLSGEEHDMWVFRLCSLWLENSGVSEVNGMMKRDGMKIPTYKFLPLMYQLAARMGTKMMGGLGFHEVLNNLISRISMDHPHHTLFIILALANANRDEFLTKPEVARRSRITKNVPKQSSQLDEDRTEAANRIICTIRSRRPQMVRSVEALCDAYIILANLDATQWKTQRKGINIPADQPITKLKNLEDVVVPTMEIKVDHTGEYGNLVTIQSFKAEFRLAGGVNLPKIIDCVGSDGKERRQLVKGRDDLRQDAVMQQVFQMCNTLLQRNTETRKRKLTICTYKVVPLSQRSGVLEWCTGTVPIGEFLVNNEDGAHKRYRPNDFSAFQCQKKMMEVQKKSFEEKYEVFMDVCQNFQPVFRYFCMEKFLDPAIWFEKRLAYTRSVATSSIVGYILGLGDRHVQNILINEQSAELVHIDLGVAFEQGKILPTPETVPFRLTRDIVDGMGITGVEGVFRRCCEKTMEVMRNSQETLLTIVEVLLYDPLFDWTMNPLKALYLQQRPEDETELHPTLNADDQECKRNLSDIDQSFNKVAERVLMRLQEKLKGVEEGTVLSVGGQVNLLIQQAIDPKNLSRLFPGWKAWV
Briefly: ATM inhibition test (phosphorylation of Chk2 generated by ionizing radiation, AlphaScreen SureFire). The class given is cell-based. The settings on record: phosphorylated Chk2 in NCI-H460 cells, ionizing radiation 8Gy, 1 hour after test compound treatment; read-out: ATM inhibitory activity. The gist of the method: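 Phosphorylated Chk2 read by AlphaScreen SureFire in human non-small cell lung cancer NCI-H460 cells, 1 hour after 8Gy ionizing radiation at 37° C. Compound added 1 hour before irradiation. Percent inhibition normalised between irradiated and non-irradiated drug-untreated signals.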
(In general: Bead proximity is the source of the signal in Alpha formats.)
`N#Cc1cccc(CNc2ccc3c(c2)Cc2ccnc(-c4cc(N5CCOCC5)cc(=O)[nH]4)c2O3)n1` [Example 2-41-15, 6-(((1-(4-Morpholino-6-oxo-1,6-dihydropyridin-2-yl)-5H-chromeno[2,3-c]pyridin-7-yl)amino)methyl)picolinonitrile]: the IC50 is 0.1 to 0.5 µM.

For the molecule `O=c1cc(N2CCOCC2)cc(-c2cccc3c2Oc2ccc(N[C@H]4CCN(Cc5ccccc5)C[C@@H]4O)cc2C3)[nH]1` (relative stereo) [Example 2-33, 6-(7-((trans-1-benzyl-3-hydroxypiperidin-4-yl)amino)-9H-xanthen-4-yl)-4-morpholinopyridin-2(1H)-one], the IC50 lay in the range of 0.1 to 0.5 µM.

For `O=c1cc(N2CCOCC2)cc(-c2cccc3c2Oc2ccc(NCc4cnc5occc5c4)cc2C3)[nH]1` [Example 2-2-44, 6-(7-((Furo[2,3-b]pyridin-5-ylmethyl)amino)-9H-xanthen-4-yl)-4-morpholino pyridin-2(1H)-one], the IC50 was under 0.1 µM.

For `O=c1cc(N2CCOCC2)cc(-c2cccc3c2Sc2ccc(NCc4cscn4)cc2S3)[nH]1` [Example 1-12-53, 4-Morpholino-6-(7-((thiazol-4-ylmethyl)amino)thianthren-1-yl)pyridin-2 (1H)-one], the IC50 was in the range of 0.1 to 0.5 µM.

With “3-((6-(4-Morpholino-6-oxo- 1,6-dihydropyridin-2-yl) thianthren-2-yl)amino) indolin-2-one [Example 1-12-37]”, the IC50 fell in the range of 0.1 to 0.5 µM.

Regarding `Cc1ccc(C(Nc2ccc3c(c2)Sc2cccc(-c4cc(N5CCOCC5)cc(=O)[nH]4)c2S3)C2CCN(CCF)CC2)nc1` (stereo not drawn) [Example 1-56-6, 6-(7-(((1-(2-Fluoroethyl)piperidin-4-yl)(5-methylpyridin-2-yl)methyl)amino)thianthren-1-yl)-4-morpholino pyridin-2(1H)-one], the IC50 was under 0.1 µM.

Consider `CCC(Nc1ccc2c(c1)Sc1cccc(-c3cc(N4CCOCC4)cc(=O)[nH]3)c1S2)[C@@H](N)CC` (stereo partly drawn) [Example 1-20-6, 6-(7-(((4S)-4-Aminohexan-3-yl)amino)thianthren-1-yl)-4-morpholino pyridin-2(1H)-one], for which the IC50 is 0.1 to 0.5 µM.

With `CC(CN1CCCC(O)C1)Nc1ccc2c(c1)Sc1cccc(-c3cc(N4CCOCC4)cc(=O)[nH]3)c1S2` (stereo not drawn) [Example 1-13-6, 6-(7-((1-(3-Hydroxypiperidin-1-yl)propan-2-yl)amino)thianthren-1-yl)-4-morpholino pyridin-2(1H)-one], the IC50 lay in the range of 0.1 to 0.5 µM.

On to `Cc1cnc(C(CCN(C)C)Nc2ccc3c(c2)Sc2cccc(-c4cc(=O)cc(N5CCOCC5)o4)c2S3)cn1` (single isomer, unassigned) [Example 10-8, 2-(7-((3-(dimethylamino)-1-(5-methylpyrazin-2-yl)propyl)amino)thianthren-1-yl)-6-morpholino-4H-pyran-4-one], for which the IC50 is under 0.1 µM.

As to `O=C(N[C@H]1CC[C@H](Nc2ccc3c(c2)Cc2cccc(-c4cc(N5CCOCC5)cc(=O)[nH]4)c2O3)CC1)OCc1ccccc1` [Example 2-2-54, Benzyl ((trans)-4-((5-(4-morpholino-6-oxo-1,6-dihydropyridin-2-yl)-9H-xanthen-2-yl)amino)cyclohexyl)carbamate], the IC50 lay in the range of 0.5 to 2 µM.

On to `Cc1ccc(C(Nc2ccc3c(c2)Sc2cccc(-c4cc(N5CCOCC5)cc(=O)[nH]4)c2S3)C2CCCC2)nc1` (stereo not drawn) [Example 1-12-125, 6-(7-((Cyclopentyl(5-methylpyridin-2-yl)methyl)amino)thianthren-1-yl)-4-morpholino pyridin-2(1H)-one], for which the IC50 is 0.1 to 0.5 µM.

With `CCCCC(Nc1ccc2c(c1)Sc1cccc(-c3cc(N4CCOCC4)cc(=O)[nH]3)c1S2)[C@H](C)N` (stereo partly drawn) [Example 1-20-3, 6-(7-(((2S)-2-Aminoheptan-3-yl)amino)thianthren-1-yl)-4-morpholino pyridin-2(1H)-one], the IC50 is 0.1 to 0.5 µM.

Regarding `CC(Nc1ccc2c(c1)Cc1cccc(-c3cc(N4CCOCC4)cc(=O)[nH]3)c1O2)C(=O)N1CCCC1` (stereo not drawn) [Example 2-15, 4-Morpholino-6-(7-((1-oxo-1-(pyrrolidin-1-yl)propan-2-yl)amino)-9H-xanthen-4-yl)pyridin-2(1H)-one], the IC50 is 0.1 to 0.5 µM.

For `CC(Nc1ccc2c(c1)Sc1cccc(-c3cc(N4CCOCC4)cc(=O)[nH]3)c1S2)c1ncccn1` (stereo not drawn) [Example 1-12-68, 4-Morpholino-6-(7-((1-(pyrimidin-2-yl)ethyl)amino)thianthren-1-yl)pyridin-2 (1H)-one], the IC50 was in the range of 0.1 to 0.5 µM.

`O=c1cc(N2CCOCC2)cc(-c2cccc3c2Oc2ccc(NC4CCN(CCc5ccc(Cl)cc5)CC4)cc2C3)[nH]1` [Example 2-30-6, 6-(7-((1-(4-Chlorophenethyl)piperidin-4-yl)amino)-9H-xanthen-4-yl)-4-morpholino pyridin-2 (1H)-one]: the IC50 lay in the range of 0.5 to 2 µM.

For the molecule `N#Cc1ccnc(CNc2ccc3c(c2)Cc2ccnc(-c4cc(N5CCOCC5)cc(=O)[nH]4)c2O3)c1` [Example 2-41-16, 2-(((1-(4-Morpholino-6-oxo-1,6-dihydropyridin-2-yl)-5H-chromeno[2,3-c]pyridin-7-yl)amino)methyl)isonicotinonitrile], the IC50 was in the range of 0.1 to 0.5 µM.

As for `CC(CN(C)C1CCCCC1)Nc1ccc2c(c1)Sc1cccc(-c3cc(N4CCOCC4)cc(=O)[nH]3)c1S2` (stereo not drawn) [Example 1-13-9, 6-(7-((1-(Cyxlohexyl(methyl)amino)propan-2-yl)amino)thianthren-1-yl)-4-morpholino pyridin-2(1H)-one], the IC50 lay in the range of 0.1 to 0.5 µM.

For `O=c1cc(N2CCOCC2)cc(-c2cccc3c2Sc2ccc(NCCN4CCCC4)cc2S3)[nH]1` [Example 1-10-11], the IC50 fell in the range of 0.1 to 0.5 µM.

`CC(Nc1ccc2c(c1)Cc1cccc(-c3cc(N4CCOCC4)cc(=O)[nH]3)c1O2)c1cccnc1` (racemic) [Example 2-11-1, 4-morpholino-6-(7-((1-(pyridin-3-yl)ethyl)amino)-9H-xanthen-4-yl)pyridin-2(1H)-one]: the IC50 lay in the range of 0.1 to 0.5 µM.

In the case of `O=c1cc(N2CCOCC2)cc(-c2cccc3c2Oc2ccc(NCc4cnccn4)cc2C3)[nH]1` [Example 2-3-5, 4-Morpholino-6-(7-((pyrazin-2-ylmethyl)amino)-9H-xanthen-4-yl)pyridin-2(1H)-one], the IC50 was in the range of 0.1 to 0.5 µM.

As to `CC(CN1C2CCC1COC2)Nc1ccc2c(c1)Sc1cccc(-c3cc(N4CCOCC4)cc(=O)[nH]3)c1S2` (stereo not drawn) [Example 1-13-5, 6-(7-((1-(3-Oxa-8-azabicyclo [3.2.1]octan-8-yl)propan-2-yl)amino)thianthren-1-yl)-4-morpholino pyridin-2(1H)-one], the IC50 was in the range of 0.1 to 0.5 µM.

In the case of `O=c1cc(N2CCOCC2)cc(-c2nccc3c2Oc2ccc(NCc4cncc(C5CC5)c4)cc2C3)[nH]1` [Example 2-41-11, 6-(7-(((5-Cyclopropylpyridin-3-yl)methyl)amino)-5H-chromeno[2,3-c]pyridin-1-yl)-4-morpholino pyridin-2(1H)-one], the IC50 fell in the range of 0.1 to 0.5 µM.

Take `O=c1cc(N2CCOCC2)cc(-c2cccc3c2Oc2ccc(NC4CCN(CCCF)CC4)cc2C3)[nH]1` [Example 2-30-12, 6-(7-((1-(3-Fluoropropyl)piperidin-4-yl)amino)-9H-xanthen-4-yl)-4-morpholino pyridin-2(1H)-one]: the IC50 was in the range of 0.5 to 2 µM.

For `COc1cc(CNc2ccc3c(c2)Cc2ccnc(-c4cc(N5CCOCC5)cc(=O)[nH]4)c2O3)cnc1OC` [Example 2-41-10, 6-(7-(((5,6-Dimethoxypyridin-3-yl)methyl)amino)-5H-chromeno[2,3-c]pyridin-1-yl)-4-morpholino pyridin-2(1H)-one], the IC50 is 0.1 to 0.5 µM.
